Experiments:
[1] = system: rat primary cortical neuron cultures; assay: NMDA excitotoxicity, viability by MTT assay; type: cell-based; conditions: then NMDA 500 μM for 5 minutes
Experimental: Cells were then exposed to excitotoxic NMDA (500 μM for 5 minutes) and viability was assessed using MTT assay after 24 hours. […] Rat cortical neurons (DIV 9) were treated with NMDA (50 μM for 5 minutes) and then with cis-RSV for 24 hours. Cells were then exposed to excitotoxic NMDA (500 μM for 5 minutes) and viability was assessed using MTT assay after 24 hours. […] Cell viability was assessed after 48 hours. […] Representative images (scale bar, 20 μm) for cortical neurons following neurite degeneration (MAP2—neurite marker, magenta and DAPI—nuclear marker, blue). […] Neurons were immunoassayed with anti-MAP2 antibody and quantified for neurite degeneration. The data represents mean±SEM for n=3 experiments with significance measured using Student's paired t-test.
Primary cortical neuron cultures were obtained from E18 Sprague Dawley rats' cortices, which were dissected in Hibernate E (BrainBits) and dissociated using the Neural Tissue Dissociation kit (Miltenyi Biotec). For this, minced cortices were incubated in a pre-warmed enzyme mix at 37° C. for 15 min; tissues were then triturated and strained using a 40 μm cell strainer. After washing and centrifugation, neurons were seeded in 50 μg/ml poly-D-Lysine (Sigma Aldrich) coated tissue culture plates. NBActive-1 medium (BrainBits) supplemented with 100 U/ml of Penicillin-Streptomycin (Life Technologies), 2 mM L-Glutamine (Life Technologies), and 1 X N21 supplement (R&D Systems) was used as culture medium. Control (AM4635), TyrRS (s443), PARP1 (s130207) siRNA for transfection were obtained from Invitrogen. […]
(§1) Rat cortical neurons (DIV 10-11) were exposed to different treatments after seeding 20,000 cells/well in 96-well plates. Cell viability was then assessed at 48 hours after the initial exposure to NMDA. […] The percentage of MTT reduced as measured by the difference between the absorbances at 570 nm read in a spectrophotometer (Spectramax 190R Molecular Devices, UK). The percentage of reduction of MTT was calculated comparing the difference of the absorbance at 570 of each sample. […]

[2] = system: Rat cortical neurons; assay: DNA damage (etoposide)-induced neurotoxicity, MTT assay; type: cell-based; conditions: 5 μM etoposide 24 hours, pre-treatment 16 hours
[3] = system: Rat cortical neurons transfected with TyrRS siRNA; assay: TyrRS siRNA knockdown, then excitotoxic NMDA, MTT assay; type: cell-based; conditions: 24 hours
Experimental: Cells viability was assessed using MTT assay. […] Cells were then exposed to excitotoxic NMDA (500 μM for 5 minutes), and viability was assessed using MTT assay after 24 hours.
Primary cortical neuron cultures were obtained from E18 Sprague Dawley rats' cortices, which were dissected in Hibernate E (BrainBits) and dissociated using the Neural Tissue Dissociation kit (Miltenyi Biotec). For this, minced cortices were incubated in a pre-warmed enzyme mix at 37° C. for 15 min; tissues were then triturated and strained using a 40 μm cell strainer. After washing and centrifugation, neurons were seeded in 50 μg/ml poly-D-Lysine (Sigma Aldrich) coated tissue culture plates. NBActive-1 medium (BrainBits) supplemented with 100 U/ml of Penicillin-Streptomycin (Life Technologies), 2 mM L-Glutamine (Life Technologies), and 1 X N21 supplement (R&D Systems) was used as culture medium. Control (AM4635), TyrRS (s443), PARP1 (s130207) siRNA for transfection were obtained from Invitrogen. On 5 DIV, rat cortical neurons were transfected with 75 nM control or TyrRS siRNA using Dharmafect 3 Transfection Reagent. A second transfection was done two days later using 75 nM of TyrRS siRNA, followed by cell collection or assays after another 48 hours. For PARP1 siRNA, on 7 DIV, neurons were transfected with 75 nM siRNA for both control and PARP1 siRNA.
as §1, with “NMDA. 3-[4,5-dimethylthiazole-2-yl]-2,5-diphenyltetrazolium bromide (MTT) assays were used to assess change in cell viability. Cultured rat cortical neurons were incubated with MTT (0.5 mg/mL).” for “NMDA.”

[4] = system: XRCC1; assay: Immunoblot for DNA repair protein XRCC1; type: cell-based, rat; conditions: 5-50 μM, 4 hours
Text: (§2) Ac-K56-H3 is a marker of genomic stability, see Driscoll, R., Hudson, A. & Jackson, S. P. Yeast Rtt109 promotes genome stability by acetylating histone H3 on lysine 56. Science 315, 649-652, doi:10.1126/science.1135862 (2007), and DNA damage, see Tjeertes, J. V., Miller, K. M. & Jackson, S. P. Screen for DNA-damage-responsive histone modifications identifies H3K9Ac and H3K56Ac in human cells. EMBO J 28, 1878-1889, doi:10.1038/emboj.2009.119 (2009), and inhibition of PARP1 causes the downregulation of RAD51, see Hegan, D. C. et al. Inhibition of poly(ADP-ribose) polymerase down-regulates BRCA1 and RAD51 in a pathway mediated by E2F4 and p130. […] The western blot images of the protein levels of HPF1 was quantified using ImageJ.
(§3) Cultured neurons (DIV 9-10) were washed once with cold 1×PBS and lysed in cell lysis buffer (20 mM Tris-HCl (pH 7.5), 150 mM NaCl, 1 mM Na2EDTA, 1 mM EGTA, 1% Triton, 2.5 mM sodium pyrophosphate, 1 mM beta-glycerophosphate, 1 mM Na3VO4, 1 μg/ml leupeptin supplemented with protease inhibitor). […] Lysates were quantified using Bio-Rad Protein Assay, and an equal amount of protein was loaded onto a 4 to 12% gradient gel (NuPAGE-Invitrogen). […] Quantification for the western blots was done using ImageJ (Version 1.53c).

[5] = system: Rat cortical neurons; assay: trans-RSV in combination with cis-RSV, viability by MTT assay; type: cell-based; conditions: cis-RSV 10-50 μM in combination with trans-RSV, 48 hours
Experimental: Cell viability was assessed and quantified using MTT assay.
Rat cortical neurons (DIV 10-11) were exposed to different treatments after seeding 20,000 cells/well in 96-well plates. Cell viability was then assessed at 48 hours after the initial exposure to NMDA. 3-[4,5-dimethylthiazole-2-yl]-2,5-diphenyltetrazolium bromide (MTT) assays were used to assess change in cell viability. Cultured rat cortical neurons were incubated with MTT (0.5 mg/mL). In the MTT assay, after 2 h incubation, the insoluble purple product formazan resulting from the reduction of MTT by NAD(P)H-dependent oxidoreductases present in cells with viable mitochondria was solubilized in dimethyl sulfoxide at room temperature, under agitation, and protected from light. The percentage of MTT reduced as measured by the difference between the absorbances at 570 nm read in a spectrophotometer (Spectramax 190R Molecular Devices, UK). The percentage of reduction of MTT was calculated comparing the difference of the absorbance at 570 of each sample. Results are presented as percentage of control (wells incubated with the vehicle).

[6] = system: TyrRS; assay: Immunostaining of neuronal TyrRS under neurotoxic agents (NMDA, MPP+); type: cell-based, rat; conditions: 50 μM in combination with 50 μM NMDA or 100 μM MPP+, 4 hours
[7] = system: HPF1; assay: Immunoblot for HPF1 protein; type: cell-based, rat; conditions: high dose 25 μM, up to 16 hr, time-dependent
Text: as §2, §3

Compound	neuronal survival under NMDA excitotoxicity ([1]; cis-RSV for 24 hours)	protection from DNA damage-induced neurotoxicity [2]	effect of TyrRS knockdown on viability under excitotoxic NMDA ([3]; cis-RSV 50 μM)	XRCC1 protein levels [4]	trans-RSV-mediated neurotoxicity [5]	neurotoxicity-mediated downregulation of neuronal TyrRS [6]	neuronal survival under NMDA excitotoxicity ([1]; higher dose (≥25 μM), 24 hours)	neuronal survival under NMDA excitotoxicity ([1]; low dose (≤10 μM), 24 hours)	HPF1 protein levels [7]	effect of TyrRS knockdown on viability under excitotoxic NMDA ([3]; low dose trans-RSV 5, 10 μM)	effect of TyrRS knockdown on toxic effects under excitotoxic NMDA ([3]; trans-RSV 50 μM)
Oc1ccc(/C=C\c2cc(O)cc(O)c2)cc1 [cis-RSV, cis-resveratrol]	protected against excitotoxicity in a dose-dependent manner	protects neurons from DNA damage-induced neurotoxicity	blunted the neuroprotective effect	upregulated them	rescued trans-RSV-mediated neurotoxicity	protected against the downregulation of neuronal TyrRS					
Oc1ccc(/C=C/c2cc(O)cc(O)c2)cc1 [trans-RSV, trans-resveratrol]				downregulated the protein levels		exacerbated the downregulation	exacerbated the N-Methyl-D-aspartate (NMDA)-mediated excitotoxicity	evoked neuroprotective effects	downregulated the protein levels of the histone poly-ADP-ribosylation factor 1 (HPF1)	blunted the neuroprotective effect	exacerbated the toxic effects

— patent US20240342111A1, “ISOMER-SPECIFIC NEUROPROTECTIVE EFFECT OF NATURAL RESERVATROL” (priority 2021, published 2024)
